Assay results published in patent US20100056791A1, “Pyrazolopyridine carboxamide derivative and phosphodiesterase (pde) inhibitor containing the same” (priority 2006, published 2010).

Columns and labels:
[1] = test system: histamine-induced bronchoconstriction; assay: Histamine-induced airway contraction reaction in guinea pigs; format: in vivo; conditions: Cavia porcellus, iv, 0.5 min, i.v., 30 seconds after administration, read-out: Inhibition ratio; for inhibition in vivo at 0.3 mg/kg: 0.3 mg/kg administration (results in brackets); for inhibition in vivo at 0.1 mg/kg: 0.1 mg/kg administration (not in brackets)
Experimental: Guinea pigs were anesthetized with pentobarbital (30 mg/kg, i.p.). A cannula for intravenous administration, a cannula for collecting blood and measuring blood pressure, and a tracheal cannula were inserted into the left external jugular vein, right internal carotid artery, and trachea, respectively. The guinea pigs were maintained on artificial respiration under the conditions of 60 times/min and 10 mL/kg/stroke. The airflow from the side branch of the tracheal cannula was measured by a bronchospasm transducer (Ugo-Basile) and recorded on a computer via Power Lab (ADInstruments Japan). The guinea pigs were immobilized with gallamine (10 mg/kg, i.v.), and histamine was administered at 10-minute intervals (12.5 μg/kg, i.v.). […] We examined the inhibitory action of test compounds on histamine-induced bronchoconstriction 30 seconds after compounds administration. Bronchoconstriction was recorded as the amount of airflow, and the results were represented by the ratio of the maximum value of the histamine-induced airflow 30 seconds after the administration to the maximum value of the airflow before the administration. When the inhibition ratio≧90%, the results were represented by “+++.” When 90%>the inhibition ratio≧70%, the results were represented by “++.” When 70%>the inhibition ratio≧30%, the results were represented by “+.” The results shown in brackets are for 0.3 mg/kg administration, and the other results are for 0.1 mg/kg administration.

[2] = biological target: T1, PDE4B catalytic domain (PDE4Bcat) (Homo sapiens, UniProt Q07343); assay: Phosphodiesterase inhibitory activity ([3H]cAMP breakdown, recombinant PDE4Bcat); format: biochemical; conditions: 30° C. 20 minutes, read-out: IC50(μmol/L) PDE4
T1 construct: The cDNA of PDE4B catalytic domain (hereinafter abbreviated as Cat) was isolated from human RNA by RT-PCR; made in house; host or cells: Sf9 insect cells (baculovirus, Gateway / Bac-to-Bac)
T1 sequence (Q07343 330-659 limits assumed): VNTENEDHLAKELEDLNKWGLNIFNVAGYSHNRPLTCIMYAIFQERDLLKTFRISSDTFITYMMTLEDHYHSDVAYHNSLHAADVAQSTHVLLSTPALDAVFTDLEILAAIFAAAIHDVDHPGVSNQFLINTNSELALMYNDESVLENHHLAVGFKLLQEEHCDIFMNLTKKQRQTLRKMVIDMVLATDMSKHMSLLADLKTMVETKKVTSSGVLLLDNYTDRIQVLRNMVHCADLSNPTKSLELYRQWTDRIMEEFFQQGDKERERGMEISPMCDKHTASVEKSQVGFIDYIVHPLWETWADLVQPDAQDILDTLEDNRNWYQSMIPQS
Text: The cDNA of PDE4B catalytic domain (hereinafter abbreviated as Cat) was isolated from human RNA by RT-PCR. The isolated cDNA fragments were inserted into Sf9 insect cells using Gateway system (product of Invitrogen Corporation) and Bac-to-Bac (registered trademark) Baculovirus Expression system (product of Invitrogen Corporation) to express a target PDE protein. The recombinant PDE4Bcat was purified from the culture supernatants or cell extracts of Sf9 cells expressing high levels of the PDE protein by ion exchange chromatography and was used for the following experiments.
A 4 mmol/L solution of each test compound was serially diluted four-fold with a 15% DMSO solution to prepare solutions with concentrations of 15 nmol/L to 4 mmol/L (the final concentrations used in the experiments were 1.5 nmol/L to 400 μmol/L). 10 μL of the prepared test compound solutions, [3H] cAMP diluted with a buffer solution (40 mmol/L Tris-HCl (pH: 7.4), 10 mmol/L MgCl2), and 40 μL of the recombinant human PDE protein (2×10^−6 units, 1 unit is defined as the amount of PDE that breaks down 1 μmol/L of cAMP in one minute under the conditions of a pH of 7.5 and 30° C.) were added to a 96-well plate. The mixtures were reacted at 30° C. for 20 minutes. Then, the resultant mixtures were reacted at 65° C. for 2 minutes. Subsequently, 25 μL of 1 mg/mL5′-nucleotidase (Crotalus atrox venom, product of Sigma) was added to the mixtures, and the mixtures were reacted at 30° C. for 10 minutes. After completion of the reaction, 200 μL of a solution of Dowex (300 mg/mL Dowex 1×8-400 (product of Sigma Aldrich), 33% ethanol) was added to the mixtures, and the mixtures were shaken at 4° C. for 20 minutes. Subsequently, 200 μL of MicroScint 20 (product of Packard) was added to the mixtures, and measurement was performed using a scintillation counter (Topcount, product of Packard). IC50 values were calculated using Graph Pad Prism v3.03 (product of GraphPad Software). When […], the results were represented by “+.” When 0.1 μmol/L>the IC50 value, the results were represented by “++.”

| SMILES | IC50 [2] | inhibition in vivo at 0.3 mg/kg [1] | inhibition in vivo at 0.1 mg/kg [1] |
| --- | --- | --- | --- |
| CCc1cc2c(C(=O)Nc3c(Cl)c[n+]([O-])cc3Cl)ccc(OC)n2n1 [Example 11, 2-Ethyl-7-methoxypyrazolo[1,5-a]pyridine-4-carboxylic acid (3,5-dichloto-1-oxypyridin-4-yl)amide] | < 0.1 µmol/L | 70 to 90% |  |
| COc1ccc(C(=O)Nc2c(Cl)c[n+]([O-])cc2Cl)c2cc(C(F)(F)F)nn12 [Example 17, 7-Methoxy-2-trifluoromethylpyrazolo[1,5-a]pyridine-4-carboxylic acid (3,5-dichloro-1-oxypyridin-4-yl)amide] | < 0.1 µmol/L |  | 30 to 70% |
| COc1ccc(C(=O)Nc2c(Cl)cc(Cl)cc2Cl)c2cc(C(F)(F)F)nn12 [Example 18, 7-Methoxy-2-trifluoromethylpyrazolo[1,5-a]pyridine-4-carboxylic acid (2,4,6-trichlorophenyl)amide] | 0.1 to 10 µmol/L |  |  |
| COc1ccc(C(=O)Nc2c(Cl)c[n+](O)cc2Cl)c2cc(C3CC3)nn12 [Example 25, 2-Cyclopropyl-7-methoxypyrazolo[1,5-a]pyridine-4-carboxylic acid (3,5-dichloro-1-oxypyridin-4-yl)amide] | < 0.1 µmol/L | ≥ 90% |  |
| COc1ccc(C(=O)Nc2c(Cl)c[n+](O)cc2Cl)c2cc(C(C)C)nn12 [Example 33, 2-Isopropyl-7-methoxypyrazolo[1,5-a]pyridine-4-carboxylic acid (3,5-dichloro-1-oxypyridin-4-yl)amide] | < 0.1 µmol/L |  | ≥ 90% |
| COc1ccc(C(=O)Nc2c(Cl)c[n+]([O-])cc2Cl)c2ccnn12 [Example 41, 7-Methoxypyrazolo[1,5-a]pyridine-4-carboxylic acid (3,5-dichloro-1-oxypyridin-4-yl)amide] | < 0.1 µmol/L | 30 to 70% |  |
| CCc1cc2c(C(=O)Nc3c(Cl)cncc3Cl)cccn2n1 [Example 48, 2-Ethylpyrazolo[1,5-a]pyridine-4-carboxylic acid (3,5-dichloropyridin-4-yl)amide] | 0.1 to 10 µmol/L |  |  |
| COCc1cc2c(C(=O)Nc3c(Cl)c[n+](O)cc3Cl)ccc(OC)n2n1 [Example 77, 7-Methoxy-2-methoxymethylpyrazolo[1,5-a]pyridine-4-carboxylic acid (3,5-dichloro-1-oxypyridin-4-yl)amide] | < 0.1 µmol/L | 30 to 70% |  |
| CNc1ccc(C(=O)Nc2c(Cl)cncc2Cl)c2cc(C(F)(F)F)nn12 [Example 97, 7-Methylamino-2-trifluoromethylpyrazolo[1,5-a]pyridine-4-carboxylic acid (3,5-dichloropyridin-4-yl)amide] | < 0.1 µmol/L |  |  |
| CC(=O)c1ccc(C(=O)Nc2c(Cl)cncc2Cl)c2cc(C(F)(F)F)nn12 [Example 108, 7-Acetyl-2-trifluoromethylpyrazolo[1,5-a]pyridine-4-carboxylic acid (3,5-dichloropyridin-4-yl)amide] | < 0.1 µmol/L |  |  |
| COCc1ccc(C(=O)Nc2c(Cl)cncc2Cl)c2cc(C(F)(F)F)nn12 [Example 115, 7-Methoxymethyl-2-trifluoromethylpyrazolo[1,5-a]pyridine-4-carboxylic acid (3,5-dichloropyridin-4-yl)amide] | < 0.1 µmol/L |  |  |
| COc1ccc(C(=O)Nc2c(Cl)cncc2Cl)c2c(Cl)c(C(F)(F)F)nn12 [Example 118, 3-Chloro-7-methoxy-2-trifluoromethylpyrazolo[1,5-a]pyridine-4-carboxylic acid (3,5-dichloropyridin-4-yl)amide] | < 0.1 µmol/L |  |  |
| COc1ccc(C(=O)Nc2c(Cl)cncc2Cl)c2c(O)c(C(F)(F)F)nn12 [Example 119, 3-Hydroxy-7-methoxy-2-trifluoromethylpyrazolo[1,5-a]pyridine-4-carboxylic acid (3,5-dichloropyridin-4-yl)amide] | 0.1 to 10 µmol/L |  |  |

Further lines, with some results ahead:

| IC50 [2] | SMILES | inhibition in vivo at 0.3 mg/kg [1] | inhibition in vivo at 0.1 mg/kg [1] |
| --- | --- | --- | --- |
| < 0.1 µmol/L | COc1ccc(C(=O)Nc2c(Cl)cncc2Cl)c2cc(C3CC3)nn12 [Example 24, 2-Cyclopropyl-7-methoxypyrazolo[1,5-a]pyridine-4-carboxylic acid (3,5-dichloropyridin-4-yl)amide] |  | ≥ 90% |
| 0.1 to 10 µmol/L | COc1ccc(C(=O)Nc2c(Cl)cncc2Cl)c2cc(C(C)C)nn12 [Example 32, 2-Isopropyl-7-methoxypyrazolo[1,5-a]pyridine-4-carboxylic acid (3,5-dichloropyridin-4-yl)amide] |  | 70 to 90% |
| < 0.1 µmol/L | COc1ccc(C(=O)Nc2c(Cl)cncc2Cl)c2ccnn12 [Example 40, 7-Methoxypyrazolo[1,5-a]pyridine-4-carboxylic acid (3,5-dichloropyridin-4-yl)amide] | 70 to 90% |  |
| < 0.1 µmol/L | COc1ccc(C(=O)Nc2c(Cl)cncc2Cl)c2cc(C(F)F)nn12 [Example 58, 2-Difluoromethyl-7-methoxy-pyrazolo[1,5-a]pyridine-4-carboxylic acid (3,5-dichloropyridin-4-yl)amide] |  | ≥ 90% |
| < 0.1 µmol/L | CCOc1ccc(C(=O)Nc2c(Cl)cncc2Cl)c2cc(C(F)F)nn12 [Example 59, 2-Difluoromethyl-7-ethoxypyrazolo[1,5-a]pyridine-4-carboxylic acid (3,5-dichloropyridin-4-yl)amide] |  |  |
| < 0.1 µmol/L | COc1ccc(C(=O)Nc2c(Cl)c[n+](O)cc2Cl)c2cc(C#N)nn12 [Example 71, 2-Cyano-7-methoxypyrazolo[1,5-a]pyridine-4-carboxylic acid (3,5-dichloro-1-oxypyridin-4-yl)amide] |  |  |
| < 0.1 µmol/L | COCc1cc2c(C(=O)Nc3c(Cl)cncc3Cl)ccc(OC)n2n1 [Example 76, 7-Methoxy-2-methoxymethylpyrazolo[1,5-a]pyridine-4-carboxylic acid (3,5-dichloropyridin-4-yl)amide] |  | 70 to 90% |
| < 0.1 µmol/L | COc1ccc(C(=O)Nc2c(Cl)cncc2Cl)c2cc(C=O)nn12 [Example 78, 2-Formyl-7-methoxypyrazolo[1,5-a]pyridine-4-carboxylic acid (3,5-dichloropyridin-4-yl)amide] | 70 to 90% |  |
| < 0.1 µmol/L | COc1ccc(C(=O)Nc2c(Cl)cncc2Cl)c2cc(C(C)O)nn12 (stereo not drawn) [Example 79, 2-(1-Hydroxyethyl)-7-methoxypyrazolo[1,5-a]pyridine-4-carboxyl ic acid (3,5-dichloropyridin-4-yl)amide] |  | 30 to 70% |
| < 0.1 µmol/L | COc1ccc(C(=O)Nc2c(Cl)cncc2Cl)c2cc(C(C)=O)nn12 [Example 80, 2-Acetyl-7-methoxypyrazolo[1,5-a]pyridine-4-carboxylic acid (3,5-dichloropyridin-4-yl)amide] |  | 30 to 70% |
| 0.1 to 10 µmol/L | COc1ccc(C(=O)Nc2c(Cl)cncc2Cl)c2cc(C(=O)O)nn12 [Example 81, 4-(3,5-Dichloropyridin-4-ylcarbamoyl)-7-methoxypyrazolo[1,5-a]pyridine-2-carboxylic acid] |  |  |
| < 0.1 µmol/L | COc1ccc(C(=O)Nc2c(Cl)cncc2Cl)c2cc(C=NO)nn12 [Example 82, 2-(Hydroxyiminomethy)-7-methoxypyrazolo[1,5-a]pyridine-4-carboxylic acid (3,5-dichloropyridin-4-yl)amide] |  | 70 to 90% |
| < 0.1 µmol/L | COc1ccc(C(=O)Nc2c(Cl)cncc2Cl)c2cc(C#N)nn12 [Example 83, 2-Cyano-7-methoxypyrazolo[1,5-a]pyridine-4-carboxylic acid (3,5-dichloropyridin-4-yl)amide] |  | ≥ 90% |
